Test results as given in PMC10460844, “Real‐Time Monitoring of Multitarget Antimicrobial Mechanisms of Peptoids Using Label‐Free Imaging with Optical Diffraction Tomography” (Advanced Science, 2023).
Square brackets hold non-standard residues; d marks the D form. Peptide text beside a SMILES is read from it. Gly(N(CH2)2(3-indolyl)) = O=C(O)CNCCc1c[nH]c2ccccc12; Nspe = C[C@H](NCC(=O)O)c1ccccc1; Nphe = O=C(O)CNCc1ccccc1; Nlys = NCCCCNCC(=O)O

Assays:
[1] = Analytical reversed-phase HPLC elution (hydrophobicity); assay type: physicochemical; conditions: Table S1; analytical RP-HPLC, SunFire C18, water/ACN + 0.1% TFA, 5 to 100% B linear over 30 min, 1 mL/min, UV 220 nm; approximate comparison of hydrophobicity
Method: 7. HPLC chromatogram, retention time (tR), and LC-MS data
HPLC analysis of peptoids was conducted using a Waters HPLC system equipped with a Waters 2489 UV/Visible Detector, 1525 Binary HPLC Pump, 2707 Autosampler, 5CH column oven, and a C18 column (SunFire C18, 4.6 × 250 mm, 5 μm; Waters Corp., Milford, MA, USA). The mobile phases were deionized water (A, with + 0.1% TFA) and acetonitrile (ACN; B, with + 0.1% TFA). Before sample injection, the column was conditioned with 5% B for 10 min. Then, the mobile phase was maintained at 5% B for 2 min, followed by increasing B to 100% using a linear gradient over 30 min. At this point, 100% B was maintained for 5 additional min. The flow rate of the mobile phase was 1 mL/min. The sample was detected by measuring absorbance at 220 nm. […]

rat erythrocytes = experiment: Hemolysis assay; assay type: cell-based
Method: The hemolysis assay was performed using rat erythrocytes in phosphate‐buffered saline (PBS), as reported by Mendes et al.^[ [45] ^] Animal studies were approved by the Laboratory Animal Resource Center of Gwangju Institute of Science and Technology. Blood was collected from a 13‐week‐old male Sprague‐Dawley rat in tubes containing 158 USP units of sodium heparin to prevent coagulation and centrifuged at 1000 rpm for 10 min at 4 °C. Plasma was removed carefully and erythrocyte pellets were washed three times with PBS (35 mM phosphate, pH 7.4, 150 mM NaCl). Next, 150 µL of a 10% erythrocyte suspension was mixed with 50 µL of serially diluted peptoids (0–100 µM) in a 96‐well black polypropylene plates (Greiner, Kremsmünster, Austria). Untreated erythrocytes and cells lysed by the addition of 1% Triton X‐100 were used as negative and positive controls, respectively, with the 1% Triton X‐100‐treated wells being accepted to represent 100% hemolysis. The reaction mixture was incubated at 37 °C for 60 min, and the plates were centrifuged at 1000 rpm for 15 min. Aliquots (150 µL) of the supernatant were transferred to fresh 96‐well plates, and the absorbance of each well was measured at 540 nm using a microplate reader. Hemolysis induced by peptoids was calculated as the percentage value of Triton X‐100 lysed cells. The percentage of hemolysis by the extracts was calculated according to the following formula: % hemolysis = [(Abs 540 nm in the peptoid solution – Abs 540 nm in PBS) / (Abs 540 nm in 1% Triton X‐100 – Abs 540 nm in PBS)] × 100. HC10 and HC50 were defined as the peptoid concentrations that caused 10% and 50% hemolysis in rat erythrocytes, respectively. H max indicates the percentage of hemolysis observed at the maximum peptoid concentration, 100 µM throughout this study.

HPLC elution [1] [% MeCN] | Structure (SMILES) | Hmax (100 µM) (rat erythrocytes) [%] | HC10 (rat erythrocytes; pH 7.4) [µM] | HC50 (rat erythrocytes; pH 7.4) [µM] | HC10 (rat erythrocytes; red cells of rat) [µM] | HC50 (rat erythrocytes; red cells of rat) [µM]
50.7 | C[C@@H](c1ccccc1)N(CC(N)=O)C(=O)CN(C(=O)CN(CCCCN)C(=O)CN(C(=O)CN(C(=O)CN(CCCCN)C(=O)CN(CCc1c[nH]c2ccccc12)C(=O)CN(C(=O)CN(CCCCN)C(=O)CN(C(=O)CN(CCCCN)C(=O)CNCCCCN)[C@@H](C)c1ccccc1)[C@@H](C)c1ccccc1)[C@@H](C)c1ccccc1)[C@@H](C)c1ccccc1)[C@@H](C)c1ccccc1 [peptoid 27] | 5.9±0.2 | > 100 | > 100 | – | –
56.0 | C[C@@H](c1ccccc1)N(CC(=O)N(CCCCN)CC(=O)N(CC(=O)N(CC(=O)N(CCCCN)CC(=O)N(CC(=O)N(CC(=O)N(CCCCN)CC(=O)N(CC(=O)N(CCc1c[nH]c2ccccc12)CC(N)=O)[C@@H](C)c1ccccc1)[C@@H](C)c1ccccc1)[C@@H](C)c1ccccc1)[C@@H](C)c1ccccc1)[C@@H](C)c1ccccc1)C(=O)CN(CCc1c[nH]c2ccccc12)C(=O)CNCCCCN [peptoid 17] (H-[Nlys][Gly(N(CH2)2(3-indolyl))][Nspe][Nlys][Nspe][Nspe][Nlys][Nspe][Nspe][Nlys][Nspe][Gly(N(CH2)2(3-indolyl))]-NH2) | 87.3±6.7 | 18.0 | 39.7 | – | –
57.2 | C[C@@H](c1ccccc1)N(CC(N)=O)C(=O)CN(C(=O)CN(CCCCN)C(=O)CN(C(=O)CN(C(=O)CN(CCCCN)C(=O)CN(C(=O)CN(C(=O)CN(CCCCN)C(=O)CN(C(=O)CN(C(=O)CN(CCCCN)C(=O)CN(CCc1c[nH]c2ccccc12)C(=O)CNCCc1c[nH]c2ccccc12)[C@@H](C)c1ccccc1)[C@@H](C)c1ccccc1)[C@@H](C)c1ccccc1)[C@@H](C)c1ccccc1)[C@@H](C)c1ccccc1)[C@@H](C)c1ccccc1)[C@@H](C)c1ccccc1 [peptoid 6] | 101.6±5.8 | 9.6 | 22.0 | – | –
50.7 | NCCCCNCC(=O)N(CC(=O)N(CC(=O)N(CCCCN)CC(=O)N(CC(=O)N(CC(=O)N(CCCCN)CC(=O)N(CC(=O)N(CC(=O)N(CCCCN)CC(=O)N(CC(=O)N(CC(N)=O)Cc1ccccc1)Cc1ccccc1)Cc1ccccc1)Cc1ccccc1)Cc1ccccc1)Cc1ccccc1)Cc1ccccc1)Cc1ccccc1 [peptoid 2, reference compound] (H-[Nlys][Nphe][Nphe][Nlys][Nphe][Nphe][Nlys][Nphe][Nphe][Nlys][Nphe][Nphe]-NH2) | 17.7±1.1 | 20.4 | > 100.0 | – | –
47.5 | C[C@@H](c1ccccc1)N(CC(=O)N(CCCCN)CC(=O)N(CCc1c[nH]c2ccccc12)CC(=O)N(CCc1c[nH]c2ccccc12)CC(N)=O)C(=O)CN(CCCCN)C(=O)CN(CCCCN)C(=O)CN(C(=O)CN(C(=O)CN(CCCCN)C(=O)CN(Cc1ccccc1)C(=O)CN(Cc1ccccc1)C(=O)CNCCCCN)[C@@H](C)c1ccccc1)[C@@H](C)c1ccccc1 [peptoid 41] (H-[Nlys][Nphe][Nphe][Nlys][Nspe][Nspe][Nlys][Nlys][Nspe][Nlys][Gly(N(CH2)2(3-indolyl))][Gly(N(CH2)2(3-indolyl))]-NH2) | 7.1±0.1 | > 100 | > 100 | – | –
56.0 | C[C@@H](c1ccccc1)N(CC(N)=O)C(=O)CN(C(=O)CN(CCCCN)C(=O)CN(C(=O)CN(C(=O)CN(CCCCN)C(=O)CN(CCc1c[nH]c2ccccc12)C(=O)CN(CCc1c[nH]c2ccccc12)C(=O)CN(CCCCN)C(=O)CN(C(=O)CN(C(=O)CNCCCCN)[C@@H](C)c1ccccc1)[C@@H](C)c1ccccc1)[C@@H](C)c1ccccc1)[C@@H](C)c1ccccc1)[C@@H](C)c1ccccc1 [peptoid 13] | 96.8±1.6 | 20.2 | 41.3 | – | –
54.1 | C[C@@H](c1ccccc1)N(CC(=O)N(CCc1c[nH]c2ccccc12)CC(N)=O)C(=O)CN(CCCCN)C(=O)CN(C(=O)CN(C(=O)CN(CCCCN)C(=O)CN(C(=O)CN(C(=O)CN(CCCCN)C(=O)CN(C(=O)CN(C(=O)CNCCCCN)[C@@H](C)c1ccccc1)[C@@H](C)c1ccccc1)[C@@H](C)c1ccccc1)[C@@H](C)c1ccccc1)[C@@H](C)c1ccccc1)[C@@H](C)c1ccccc1 [peptoid 7] (H-[Nlys][Nspe][Nspe][Nlys][Nspe][Nspe][Nlys][Nspe][Nspe][Nlys][Nspe][Gly(N(CH2)2(3-indolyl))]-NH2) | 94.1±4.3 | 7.8 | 23.8 | – | –
48.6 | C[C@@H](c1ccccc1)N(CC(=O)N(CCCCN)CC(=O)N(CCCCN)CC(=O)N(CCc1c[nH]c2ccccc12)CC(=O)N(CCc1c[nH]c2ccccc12)CC(N)=O)C(=O)CN(CCCCN)C(=O)CN(C(=O)CN(C(=O)CN(CCCCN)C(=O)CN(C(=O)CN(C(=O)CNCCCCN)[C@@H](C)c1ccccc1)[C@@H](C)c1ccccc1)[C@@H](C)c1ccccc1)[C@@H](C)c1ccccc1 [peptoid 28] (H-[Nlys][Nspe][Nspe][Nlys][Nspe][Nspe][Nlys][Nspe][Nlys][Nlys][Gly(N(CH2)2(3-indolyl))][Gly(N(CH2)2(3-indolyl))]-NH2) | 8.9±1.4 | > 100 | > 100 | – | –
50.8 | C[C@@H](c1ccccc1)N(CC(N)=O)C(=O)CN(CCCCN)C(=O)CN(C(=O)CN(CCCCN)C(=O)CN(CCCCN)C(=O)CN(C(=O)CN(C(=O)CN(CCCCN)C(=O)CN(C(=O)CN(C(=O)CN(CCCCN)C(=O)CN(C(=O)CNCCc1c[nH]c2ccccc12)[C@@H](C)c1ccccc1)[C@@H](C)c1ccccc1)[C@@H](C)c1ccccc1)[C@@H](C)c1ccccc1)[C@@H](C)c1ccccc1)[C@@H](C)c1ccccc1 [peptoid 62] | 44.8±8.1 | 36.2 | > 100 | – | –
46.6 | C[C@@H](c1ccccc1)N(CC(=O)N(CCCCN)CC(=O)N(CC(=O)N(CC(=O)N(CCCCN)CC(=O)N(CC(=O)N(CC(=O)N(CCCCN)CC(=O)N(CCCCN)CC(N)=O)[C@@H](C)c1ccccc1)[C@@H](C)c1ccccc1)[C@@H](C)c1ccccc1)[C@@H](C)c1ccccc1)C(=O)CN(C(=O)CNCCCCN)[C@@H](C)c1ccccc1 [peptoid 49] (H-[Nlys][Nspe][Nspe][Nlys][Nspe][Nspe][Nlys][Nspe][Nspe][Nlys][Nlys]-NH2) | 0.3±0.3 | > 100 | > 100 | – | –
47.9 | C[C@@H](c1ccccc1)N(CC(N)=O)C(=O)CN(C(=O)CN(CCCCN)C(=O)CN(C(=O)CN(CCCCN)C(=O)CN(CCCCN)C(=O)CN(C(=O)CN(C(=O)CN(CCCCN)C(=O)CN(CCc1c[nH]c2ccccc12)C(=O)CN(CCc1c[nH]c2ccccc12)C(=O)CNCCCCN)[C@@H](C)c1ccccc1)[C@@H](C)c1ccccc1)[C@@H](C)c1ccccc1)[C@@H](C)c1ccccc1 [peptoid 33] | 5.0±0.2 | > 100 | > 100 | – | –
52.7 | C[C@@H](c1ccccc1)N(CC(=O)N(CCCCN)CC(=O)N(CC(=O)N(CC(=O)N(CCCCN)CC(=O)N(CC(=O)N(CC(=O)N(CCCCN)CC(N)=O)[C@@H](C)c1ccccc1)[C@@H](C)c1ccccc1)[C@@H](C)c1ccccc1)[C@@H](C)c1ccccc1)C(=O)CN(C(=O)CN(CCCCN)C(=O)CN(CCc1c[nH]c2ccccc12)C(=O)CNCCc1c[nH]c2ccccc12)[C@@H](C)c1ccccc1 [peptoid 37] (H-[Gly(N(CH2)2(3-indolyl))][Gly(N(CH2)2(3-indolyl))][Nlys][Nspe][Nspe][Nlys][Nspe][Nspe][Nlys][Nspe][Nspe][Nlys]-NH2) | – | 21.1 | 57.0 | 13.2 | 38.6
51.8 | C[C@@H](c1ccccc1)N(CC(N)=O)C(=O)CN(C(=O)CN(CCCCN)C(=O)CN(C(=O)CN(CCCCN)C(=O)CN(CCCCN)C(=O)CN(C(=O)CN(C(=O)CN(CCCCN)C(=O)CN(C(=O)CN(C(=O)CN(CCCCN)C(=O)CN(CCc1c[nH]c2ccccc12)C(=O)CNCCc1c[nH]c2ccccc12)[C@@H](C)c1ccccc1)[C@@H](C)c1ccccc1)[C@@H](C)c1ccccc1)[C@@H](C)c1ccccc1)[C@@H](C)c1ccccc1)[C@@H](C)c1ccccc1 [peptoid 35] | 82.6±3.2 | 20.4 | 63.0 | – | –
